For test [1] the following is noted: 0.12% mouthwash, over a 12 week period; cited from earlier work.
The subject of a further test is S. mutans biofilms. Nature of the test: Flow cell culture and CSLM analysis of 16 h S. mutans biofilms, single 10 min treatment. In kind it is cell-based, Streptococcus mutans Ingbritt. The procedure:
(§1) Flowcell culture and CSLM analysis of monospecific biofilm The biofilm culture of S. mutans in flow cells was similar to that described by Wen et al. (2006) with several modifications. A 3-channel flow cell system (Stovall Life Science, Greensboro, N.C., USA) was modified with stopcocks for inoculation, testing and staining of the bacterial biofilms. All parts were assembled and 0.5% sodium hypochlorite was pumped in and left overnight. Sterile water (200 mL) was then used to flush the system prior to the addition of growth medium. The system was inoculated with 1 mL of an exponentially growing S. mutans Ingbritt culture diluted to a cell density of 1×10^7 cells/mL. The system was incubated for 1 h prior to constant flow (0.2 mL/min) of 25% ASM (ASM; 2.5 g/L type II porcine gastric mucin, 2.0 g/L bacteriological peptone, 2.0 g/L tryptone, 1.0 g/L yeast extract, 0.35 g/L NaCl, 0.2 g/L KCl, 0.2 g/L CaCl2 and 1 mg/L haemin, pH 7.0) supplemented with 2.5 mM DTT and 0.5 g/L sucrose.. After 16 h, 1 mL of purified glycosylated x-casein(106-169) (KCG); KCGP(f106-169); KCGPZ(f106-169) (KCGPZ(f106-169); 10 mg/mL KCGP(f106-169) and 20 mM ZnCl2); 20 mM ZnCl2; 0.1% chlorhexidine digluconate or sterile water was injected into each channel of the system and incubated for 10 min, the flow of 25% ASM was then resumed for 10 min prior to staining. For determination of the effects of treatments on early stage biofilms the system was incubated for 6 h after inoculation, treated with 1 mL of test solutions for 10 min and the flow of 25% ASM resumed for another 16 h to observe recovery of the biofilm. BacLight LIVE/DEAD stain (Molecular Probes) was then used to stain the biofilm in situ.
(§2) Confocal laser scanning microscopy (CLSM) of the bacterial biofilms was carried out on a Meta 510 Confocal Microscope with an inverted stage (Zeiss). Horizontal (xy) optodigital sections, each 2 μm thick over the entire thickness of the biofilm (z) were imaged using a 63× objective at 512×512 pixel (0.28 μm per pixel), with each frame at 143.86 μm (x)×143.86 μm (y). To determine reproducibility across the biofilm 5 images at random positions were obtained at wavelengths of 488 nm and 568 nm for each channel and 3 biological replicates were used. All images obtained were analysed using Comstat software (Heydorn et al., 2000).
(§3) Data treatment and statistical analyses. The biometric data were analyzed using a two-factor analysis of variance (ANOVA) model with treatment included as a fixed factor and experiment as a random blocking factor to investigate the effect of KCGP(f106-169), KCG, KCGPZ(f106-169), Zinc and chlorhexidine on established biofilms. If treatment differences were significant, post hoc comparisons of treatment differences were performed using the Tukey posttest. Model fits were checked by residual plots, normality was investigated using normal probability plots and the Kolmogorov-Smirnov test and homogeneity of error variances was tested using Levene's test. When the error variances were heterogeneous a natural logarithm transformation of the data was used to stabilize the treatment group variances. Treatments were then compared using ANOVA on the transformed data. The biometric data obtained from the experiments investigating the effect of KCGPZ(f106-169) on 6 h S. mutans biofilms was analysed using a Paired Samples T-Test. All analyses were conducted using SPSS statistical software (version 17.0, SPSS Inc., Chicago, Ill.).

For a further test, the system named is S. mutans biofilm. Nature of the test: Early stage (6 h) S. mutans flow cell biofilms, 10 min treatment, 16 h recovery, CSLM. The arrangement: key to Surface to biovolume ratio / Roughness coefficient (dimensionless, range: zero-infinity) / Biovolume / Average thickness: —: No significant amount of biofilms detected after 16 h recovery. Conditions: 6 h biofilm. In kind it is cell-based, Streptococcus mutans Ingbritt. The procedure: as §1, §2, §3

Test [2] has as its system S. sanguis cells grown as a biofilm. As to conditions: 0.2% w/v, 5 minute exposure, biofilm in a CDFF; cited from earlier work.
A further test has as its system six species oral biofilm. Conditions: 0.2% w/v, 1 and 5 minutes of exposure; cited from earlier work.
The mark [3] stands for this setting: 0.1% (Table 1), 16 h biofilm, single 10 min treatment.
Setting [4] is: 0.1%, 16 h biofilm, single 10 min treatment.
[5] abbreviates: 0.1%, 16 h biofilm, single 10 min treatment, listed as Chlorhexidine digluconate.
Setting [6] is: 0.1% chlorhexidine digluconate, 10 min treatment.

Marks after values point to notes of the source that are not given here.

In the case of `[H]/N=C(\N/C(=N/[H])NCCCCCCNC(=N)NC(=N)Nc1ccc(Cl)cc1)Nc1ccc(Cl)cc1` [Chlorhexidine, chlorhexidine digluconate], in test [1], the “reduction of gingival inflammation” value is 25% and the “reduction of plaque accumulation” value is reported as 28%. Moreover, in the test with S. mutans biofilms (setting [3]), the “reduction of average thickness” value was found to be 59% and the “reduction of total biomass” value came to 53%. Further, in the test on S. mutans biofilms (setting [4]), the Average thickness was 3.02 ± 0.66^a μm; the Biovolume is reported as 1.82 ± 0.60^a μm^3/μm^2; the “Roughness coefficient (dimensionless, range: zero-infinity)” value (“Roughness coefficient” below) is 1.51 ± 0.12^a; the “Surface to biovolume ratio” value was 2.36 ± 1.24^ab μm^2/μm^3. For the same compound, in the test on S. mutans biofilms (setting [5]), the Average thickness result is recorded as “Significant reduction” and the Biovolume result is “Significant reduction”. Besides, the “Surface to biovolume ratio” value with S. mutans biofilms (0.1%, 16 h biofilm, single 10 min treatment, listed as chlorhexidine) is listed as “nonsignificant differences”. Besides, the “dead S. mutans cells by propidium iodide staining (BacLight Live/Dead, FIG. 5)” value with S. mutans biofilms (16 h biofilm after treatment, qualitative) is on record as “qualitatively higher number of dead S. mutans cells compared with KCG or KCGPZ(f106-169)”. Further, the “disruption / inhibition of S. mutans biofilms, comparison between treatments in words” value with S. mutans biofilms (16 h biofilm, single 10 min treatment, concentrations as in Table 1) is on record as “not significantly different to those produced by ZnCl2, 2.4 mg/mL purified KCG or 10 mg/mL KCGP(f106-169)”. Besides, in the test on S. mutans biofilm (setting [6]), the Average thickness entry is given as “—^b”; the Biovolume entry is “—^b”; the “Roughness coefficient” value was “—^b”; the “Surface to biovolume ratio” value was “—^b”. Moreover, the “effect on early S. mutans biofilms in words” value in the test on S. mutans biofilm (single 10 min treatment) is “substantially reducing the biofilms, which had not recovered after 16 h”. Further, the “reduction in viable S. sanguis cells” value in test [2] is reported as approximately 2 log10. Further, the “effect on six species oral biofilm” value in the test with six species oral biofilm is given as “no significant difference”.

With `[Cl-].[Cl-].[Zn+2]` [ZnCl2], the “Roughness coefficient” value in the test with S. mutans biofilms (20 mM, 16 h biofilm, single 10 min treatment) is given as 1.54 ± 0.07^ab.
